Reference: patent US20110081428A1, “Use of thioflavin-like compounds to increase life span and/or health span” (priority 2009, published 2011)

Tests used:
Assay type in all cases: in vivo, Caenorhabditis elegans
chn-1 RNA = assay: Real time quantitative PCR, chn-1; conditions: 50 μM ThT, 3 and 6 days of treatment
Procedure: (§1) Twelve single adults from control or 50 μM ThT populations were picked after 3, 6 and 12 days of treatment into 5 μl of distilled water and flash frozen until extraction. Individual worms were extracted using the RNeasy Micro Kit, TissueLyser and QIAcube (Qiagen). Using the manufacturer's standard Animal Tissue protocol, each sample was homogenized in buffer RLT/Bme (Qiagen) on the TissueLyser (6 min total at 20 Hz). Samples, reagents and columns were then loaded into the QIAcube robot, and processed using the “RNeasy Micro—Animal tissues and cells—DNase digest” program. Each sample was then eluted in 14 μl of Nuclease-free water. cDNA templates for the Real Time PCR reactions were made using a combination of Message Sensor RT kit (Ambion's) and TaqMan PreAmp Master Mix (Applied Biosystems). The entire worm sample was added to the RT reaction and reversed transcribed at 50° C. for 20 min, using Message Sensor's “Two Step RT-PCR Protocol” (sample RT's were randomized). Then 2.5 μl of the cDNA sample was pre-amplified with a “4×Multiplex Primer Mix” for 14 cycles using TaqMan PreAmp master mix and protocol (ABI). Two modifications were made to ABI's protocol: 1. the reaction volume was reduced to 10 μl and 2. after pre-amplification, each cDNA sample was diluted 1:5 with 1XTE Buffer (Promega). cDNA samples were stored at −20° C. until needed. […]

[1] = tested on: HE250 [unc-52(e669su250)II]; assay: RNAi knockdown of proteostasis factors with paralysis scoring; conditions: HE250, 50 μM ThT
Procedure: RNAi bacterial strains expressing double-stranded RNA that inactivates specified genes were cultured and utilized as previously described. (Timmons, L., Court, D. L. & Fire, A. Ingestion of bacterially expressed dsRNAs can produce specific and potent genetic interference in Caenorhabditis elegans. Gene 263, 103-112 (2001).) Briefly, eggs isolated from synchronous populations of unc-52(e669su250) cultures were placed on fresh RNAi plates and allowed to grow at 15° C.; 3 days later, L4 molt animals were transferred to new plates seeded with the same bacteria in presence or absence of ThT and switched to 25° C. The cultures were scored for paralysis after 48 h of treatment as described above. In all cases, 1 mM isopropyl-beta-D-thiogalactopyranoside (IPTG) was used for induction of double stranded RNA. In all the cases the identity of the clones was confirmed by sequencing.

[2] = tested on: aggregation-prone soluble oligomeric protein (A11 antibody) in N2; assay: A11 immunolocalization of soluble oligomeric protein, N2; conditions: N2, 11 days old, 50 μM ThT
Procedure: (§2) For fluorescent microscopy, TJ356 zIs356 IV [daf-16::daf-16-gfp+rol-6] or CF2189 Is001(skn-1::gfp+rol-6) were paralyzed with 1 mM levamisole mounted on 1% agarose pads and imaged using Olympus BX51 (60× objective) and HCImage software (Hamamatsu). For immunofluorescence, N2, […], CB1157 unc-54(e1157) or CL4176 dvIs27 [myo-3::Aβ(3 to 42)-let 3′UTR(pAF29); pRF4 (rol-6(su1006))] worms were treated for 24-36 h with or without 50 μM ThT at 25° C. After this period the worms were collected, rinsed, and fixed in 4% paraformaldehyde overnight. […] Paramyosin and perlecans were detected with primary monoclonal antibodies 5-23 and MH3 (developed by Henry Epstein and Robert H. Waterston and obtained from the Developmental Studies Hybridoma Bank developed under the auspices of the NICHD and maintained by The University of Iowa, Department of Biology, Iowa City, Iowa 52242) and AlexaFluor 633 goat anti-mouse (Molecular Probes) as secondary antibody. Soluble oligomers and Aβ peptide were detected with anti polyclonal All (Invitrogen) and 6E10 monoclonal (Covance) primary antibodies, respectively, with AlexaFluor 568 goat anti-rabbit and AlexaFluor 488 goat anti-mouse (Molecular Probes) as secondary antibodies. Images were processed and quantified by using Image Analyst MK II (Novato, Calif.).

N2 worms = assay: Locomotory ability / spontaneous movement (body bends); conditions: 50 μM ThT
Procedure: Data are presented as bends/min and represent the average of three independent experiments. *p<0.0001. e) Dose-response Kaplan-Meier survival curves of synchronously ageing hermaphrodite N2 populations exposed to 0 (control) to […], f) HBX and g) HBT at 20° C. (−) Control, (▪) 1 nM, ([…]) 10 μM, (▴) 100 μM, (▾) […]. Graphs are representative of three independent experiments.

HSF-1 RNA = assay: Real time quantitative PCR, hsf-1; conditions: 50 μM ThT, 3, 6 and 12 days of treatment
Procedure: as §1

[3] = tested on: DAF-16 fusion protein [TJ356 daf-16::daf-16-gfp]; assay: DAF-16::GFP localization; conditions: ThT or curcumin treatment, no heat shock
Procedure: as §2

For Cc1ccc2c(c1)sc(-c1ccc(N(C)C)cc1)[n+]2C.[Cl-] [ThT, 4-(3,6-dimethyl-1,3-benzothiazol-3-ium-2-yl)-N,N-dimethylaniline chloride], the “chn-1 RNA levels” value (chn-1 RNA) was “up-regulated”, the “ThT protection from paralysis with RNAi of proteasome and autophagy genes” value ([1]; RNAi aip-1, atg-9, vps-34) was “required for the beneficial effects of ThT” and the “ThT protection from paralysis with RNAi of acute stress genes” value ([1]; RNAi hsp-16.2, hsp-16.41) was “decreased”. The “ThT suppression of paralysis with daf-16 RNAi” value ([1]; daf-16 (RNAi)) was “potentiated”, the “ThT effect on paralysis with lmp-2 RNAi” value ([1]; lmp-2(RNAi)) was “significantly improved the ThT effect on paralysis” and the “ThT effect on paralysis with skn-1 RNAi” value ([1]; skn-1 (RNAi)) was “required for ThT effect on the paralysis phenotype”. For the same compound, the A11-positive oligomeric material [2] was “significantly decreased”, the “age-related decline in spontaneous movement” value (N2 worms) was “retarded age-related decline in spontaneous movement” and the “HSF-1 RNA levels” value (HSF-1 RNA) was “no changes were detected”. For the same compound, the “DAF-16::GFP localization” value [3] was “did not alter the normal localization”.
